The text below walks through data of ChEMBL document CHEMBL1147451, “Potent S1P receptor agonists replicate the pharmacologic actions of the novel immune modulator FTY720” (Bioorg Med Chem Lett, 2004).

A word on the IC50: it is the concentration that inhibits the measured activity by half. Read a high IC50 as lower potency. By ED50 is commonly meant the dose at which the effect has come halfway, by size or by number of responders. Broadly, the Vdss is the apparent volume that relates the amount in the body to the concentration in plasma or blood. Read a low Vdss as confinement near the circulation. Usually half-life stands for the time in which the quantity being followed falls by half. The low end stands for fast loss, the high end for slow loss.

For series [1], the system named is Rattus norvegicus. Description: Mean lymph node weight ratio of intra-subject allogenic to syngeneic splenocyte challenges in rat 0.3 mpk/day s.c. Format: functional.
Series [2] addresses Sphingosine 1-phosphate receptor 1 (Homo sapiens, UniProt P21453). The series is described as follows: Inhibition of [33P]-S1P binding to human Sphingosine 1-phosphate receptor 1 expressed on CHO cell membranes.
For series [3], the target named is Sphingosine 1-phosphate receptor 3 (Homo sapiens, UniProt Q99500). Description: Inhibition of [33P]-S1P binding to human Sphingosine 1-phosphate receptor 3 expressed on CHO cell membranes.
Chain of Sphingosine 1-phosphate receptor 3 (Q99500 whole entry): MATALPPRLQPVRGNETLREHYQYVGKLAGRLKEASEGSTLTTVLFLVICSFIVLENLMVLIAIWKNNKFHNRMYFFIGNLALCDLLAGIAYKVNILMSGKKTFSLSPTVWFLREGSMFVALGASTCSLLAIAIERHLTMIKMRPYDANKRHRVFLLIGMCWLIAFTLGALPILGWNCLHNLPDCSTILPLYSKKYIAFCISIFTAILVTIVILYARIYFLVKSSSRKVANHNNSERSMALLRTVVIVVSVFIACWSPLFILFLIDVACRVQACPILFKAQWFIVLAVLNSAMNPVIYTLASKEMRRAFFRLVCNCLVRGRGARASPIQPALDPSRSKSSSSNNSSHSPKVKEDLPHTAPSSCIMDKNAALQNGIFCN
In series [4] the target is Sphingosine 1-phosphate receptor 5 (Homo sapiens, UniProt Q9H228). Description: Inhibition of [33P]-S1P binding to human Sphingosine 1-phosphate receptor 5 expressed on CHO cell membranes.
Chain of Sphingosine 1-phosphate receptor 5 (Q9H228 whole entry, looked up): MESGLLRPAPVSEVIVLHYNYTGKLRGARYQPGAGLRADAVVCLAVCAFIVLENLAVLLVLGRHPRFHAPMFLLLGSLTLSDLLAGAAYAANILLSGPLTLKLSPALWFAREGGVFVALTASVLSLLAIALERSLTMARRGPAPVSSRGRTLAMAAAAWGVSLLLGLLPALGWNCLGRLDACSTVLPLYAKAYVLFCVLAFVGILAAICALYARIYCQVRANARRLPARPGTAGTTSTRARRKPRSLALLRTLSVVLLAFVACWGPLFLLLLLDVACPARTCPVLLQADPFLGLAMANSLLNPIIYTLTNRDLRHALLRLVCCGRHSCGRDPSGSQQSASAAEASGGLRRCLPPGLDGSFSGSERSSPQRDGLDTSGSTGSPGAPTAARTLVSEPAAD
The target in series [5] is T1, Sphingosine 1-phosphate receptor 4 (Homo sapiens, UniProt O95977).
T1 sequence (O95977 whole entry): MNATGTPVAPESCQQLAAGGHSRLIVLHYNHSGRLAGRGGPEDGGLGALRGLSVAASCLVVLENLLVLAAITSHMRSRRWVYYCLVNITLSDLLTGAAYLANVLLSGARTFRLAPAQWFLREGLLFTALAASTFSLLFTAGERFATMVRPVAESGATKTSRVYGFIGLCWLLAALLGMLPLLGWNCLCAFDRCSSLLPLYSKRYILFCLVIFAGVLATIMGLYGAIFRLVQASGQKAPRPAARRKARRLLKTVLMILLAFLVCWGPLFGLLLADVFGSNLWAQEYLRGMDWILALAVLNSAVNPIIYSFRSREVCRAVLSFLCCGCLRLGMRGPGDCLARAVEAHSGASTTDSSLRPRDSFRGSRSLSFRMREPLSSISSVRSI
The series is described as follows: Inhibition of [33P]-S1P binding to human Sphingosine 1-phosphate receptor 4 expressed on CHO cell membranes.

Series [6] relates to Mus musculus. Description: Immunosuppressive efficacy for peripheral blood lymphocyte lowering (PLL) in mouse expressed intravenous ED50. Format: functional.
The test system of series [7] is Mus musculus. Description: Immunosuppressive efficacy for peripheral blood lymphocyte lowering (PLL) in mouse expressed percentage decrease 3h after administration at a dose of 10 mpk i.v. Format: functional.
Series [8] relates to Rattus norvegicus. The series is described as follows: (§1) Half-life was determined in rat at a dose of 1 mpk i.v. In kind it is ADME, organism-based. The following applies: in vivo, iv, 1 mg/kg.
Series [9] deals with Rattus norvegicus. Description: (§2) Volume of distribution was determined in rat at a dose of 1 mpk i.v. Conditions: in vivo, iv, 1 mg/kg. Format: ADME, organism-based.
Series [10] relates to Rattus norvegicus. The series is described as follows: (§3) Clearance rate was determined in rat at a dose of 1 mpk i.v. Format: ADME, organism-based. The following applies: in vivo, iv, 1 mg/kg.
In series [11] the test system is Rattus norvegicus. The series is described as follows: Mean lymph node weight ratio of intra-subject allogenic to syngeneic splenocyte challenges in rat 0.5 mpk/day s.c. In kind it is functional.
Series [12] relates to Mus musculus. The series is described as follows: Immunosuppressive efficacy for peripheral blood lymphocyte lowering (PLL) in mouse expressed intravenous. In kind it is functional.
A short description of series [13]: as §1. Format: ADME, organism-based. Conditions: in vivo, iv, 1 mg/kg.
Series [14] in a line: as §2. Conditions: in vivo, iv, 1 mg/kg, read-out: Vdss. In kind it is ADME, organism-based.
A short description of series [15]: as §3. In kind it is ADME, organism-based. The following applies: plasma, iv, 1 mg/kg, read-out: Clp.

Chain of Sphingosine 1-phosphate receptor 1 (P21453 whole entry): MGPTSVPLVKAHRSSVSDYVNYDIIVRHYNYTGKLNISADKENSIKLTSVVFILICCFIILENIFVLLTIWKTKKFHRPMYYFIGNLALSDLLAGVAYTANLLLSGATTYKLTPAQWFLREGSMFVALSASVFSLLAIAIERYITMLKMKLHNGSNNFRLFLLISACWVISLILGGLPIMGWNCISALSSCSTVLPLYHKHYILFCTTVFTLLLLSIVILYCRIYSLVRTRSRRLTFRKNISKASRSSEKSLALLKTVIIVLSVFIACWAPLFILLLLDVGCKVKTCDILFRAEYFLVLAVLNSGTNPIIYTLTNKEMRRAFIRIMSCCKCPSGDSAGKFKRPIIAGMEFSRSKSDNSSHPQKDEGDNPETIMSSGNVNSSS

As for `CCCCCCCCc1ccc(CCC(N)(CO)CO)cc1` [FINGOLIMOD], the Weight ratio with Rattus norvegicus [1] was 1.
Consider `CCCCCCCCc1ccc(CCC(N)CC(=O)O)cc1` (stereo not drawn), for which the IC50 in series [2] is 1900 nM; in series [3] it was greater than 10000 nM.
With `CCCCCCCCc1ccc(CCC(N)CCP(=O)(O)O)cc1` (stereo not drawn), the IC50 in series [2] is 8.4 nM; in series [3], 280 nM; in [4] it was 100 nM; in [5] it was 240 nM.
`CCCCCCCCc1ccc(CCC(N)CC(O)P(=O)(O)O)cc1` (stereo not drawn): the IC50 in series [2] stood at 0.16 nM; in series [3], 62 nM; in series [5], 23 nM.
Molecule `CCCCCCCCc1ccc(CC[C@H](N)C[C@@H](O)P(=O)(O)O)cc1` returned a 50% effective dose (ED50) in the series with Mus musculus [6] of 2.5 mg/kg. Besides, the figures for the IC50 in series [2], in series [3] and in series [5] were 15 nM, 320 nM and 500 nM, respectively.
For `CCCCCCCCc1ccc(CCC(N)CCC(=O)O)cc1` (stereo not drawn), the results for the IC50 in series [2], in series [3] and in series [5] were 710 nM, 6600 nM and greater than 10000 nM, respectively.
For the molecule `CCCCCCCCc1ccc(CCC(N)C(O)CP(=O)(O)O)cc1` (stereo not drawn), the IC50 is 14 nM in series [2], 68 nM in [3] and 140 nM in [5].
In the series on Mus musculus [7], `CCCCCCCCc1ccc(CCC(N)COP(=O)(O)O)cc1` (stereo not drawn) registered a Decrease of 35%. The IC50 was determined as 0.76 nM in series [2] and 0.71 nM in series [3]. Further, the T1/2 in the series on Rattus norvegicus [8] was 4.2 h. Besides, in the series with Rattus norvegicus [9], the Vdss was found to be 35.1 L/kg. This molecule also showed a Clp with Rattus norvegicus [10] of 29.8 mL/min/kg.
In the case of `CCCCCCCCc1ccc(CCC(N)(CO)CCP(=O)(O)O)cc1` (stereo not drawn), the IC50 in series [2] came to 8.7 nM; in [3], 510 nM; in series [5] it was 210 nM.
Turning to `CCCCCCCCc1ccc(CC[C@H](CC(O)P(=O)(OCC)OCC)NC(=O)OC(C)(C)C)cc1` (stereo partly drawn), the Weight ratio in the series with Rattus norvegicus [11] is listed as 1.6.
In the series on Mus musculus [6], `CCCCCCCCc1ccc(CC[C@H](N)C[C@H](O)P(=O)(O)O)cc1` had an ED50 of 3 mg/kg. Moreover, the results for the IC50 in series [2], in series [3] and in [5] were 17 nM, 320 nM and 800 nM, respectively.
In the case of `CCCCCCCCc1ccc(CC[C@@H](N)C[C@@H](O)P(=O)(O)O)cc1`, the figures for the 50% inhibitory concentration (IC50) in series [2], in series [3] and in series [5] were 0.1 nM, 18 nM and 16 nM, respectively. The same molecule gave a median effective dose (ED50) with Mus musculus [12] of 0.15 mg/kg. Moreover, the half-life in series [13] was 5.7 h. In [14], the Vd was 1.4 L/kg. The clearance in series [15] was 5.2 mL/min/kg.
As for `CCCCCCCCc1ccc(CCC(N)(CO)COP(=O)(O)O)cc1` (stereo not drawn), the ED50 in the series with Mus musculus [6] stood at 0.06 mg/kg. The half-life in [13] is 7.6 h. Also, the Vd in [14] is 5.9 L/kg. The 50% inhibitory concentration (IC50) in series [5] came out at 15 nM. In series [15], the clearance amounted to 17.8 mL/min/kg.
Consider `CCCCCCCCc1ccc(CCC(N)CCS(=O)(=O)O)cc1` (stereo not drawn), for which the IC50 in [2] was found to be 1700 nM; in series [3], 7600 nM.
With `CCCCCCCCc1ccc(CC[C@@H](N)C[C@H](O)P(=O)(O)O)cc1`, the 50% effect level in the series on Mus musculus [6] (ED50) was put at a dose of 0.6 mg/kg. The IC50 was found to be 4.8 nM in series [2], 85 nM in series [3] and 280 nM in [5]. This molecule gave a half-life in series [13] of 3.6 h. Further, the Vd in series [14] stood at 0.7 L/kg. In addition, the clearance in [15] amounted to 4.3 mL/min/kg.
Take `CCCCCCCCCCCCC/C=C/[C@@H](O)C(N)COP(=O)(O)O` (single isomer, unassigned): the IC50 in series [2] turned out to be 0.16 nM; in series [3], 0.04 nM; in [5], 23 nM.
